These results are taken from patent US12215069B2, “Sirtuin modulating compounds and applications thereof” (Codagen Biosciences, Inc., priority 2022, dated 2025).

Experiment [1] has as its target T1, Sirt3 (Homo sapiens, UniProt Q9NTG7).
T1 construct: The hSirt3^118-399 was purchased from Xtal Biostructures (Natick, MA); purchased Xtal Biostructures (Natick, MA)
T1 sequence (Q9NTG7 118-399): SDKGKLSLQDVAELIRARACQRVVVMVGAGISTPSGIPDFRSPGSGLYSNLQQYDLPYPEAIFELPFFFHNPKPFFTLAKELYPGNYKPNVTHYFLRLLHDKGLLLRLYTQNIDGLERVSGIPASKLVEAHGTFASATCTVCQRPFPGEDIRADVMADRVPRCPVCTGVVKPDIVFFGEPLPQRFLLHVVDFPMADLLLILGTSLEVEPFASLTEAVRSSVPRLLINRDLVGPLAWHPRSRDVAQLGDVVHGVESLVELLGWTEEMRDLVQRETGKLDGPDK
In words: Fluorescence-based (FdL) assay of Sirt3 deacylation activity under steady state conditions. Type of experiment: biochemical. To be noted: for remaining activity at 1 µM: compound 1 μM; for remaining activity at 1 µM / remaining activity at 10 µM: read-out: % Control, Sirt3 deacylation activity; for remaining activity at 10 µM: compound 10 μM; for % Control, Sirt3 deacylation activity: compound 50 μM or maximum. From the text: (§1) FdL2 (QPKK^AC-AMC) peptide, also called p53-AMC peptide, was purchased from Enzo Life Sciences (Farmingdale, NY). Carba-NAD was synthesized by Dalton Pharma (Toronto, ON). The hSirt3^118-399 was purchased from Xtal Biostructures (Natick, MA). Virtual screening hits were supplied from ChemBridge Corp. (San Diego, CA).
(§2) Effect of Hit Compounds on hSirt3^118-399 Deacetylation Activity

For experiment [2], the target named is T1, Sirt3. In words: HPLC assay of Sirt3 deacylation activity under non-steady state conditions. It is filed as biochemical. To be noted: compound 10 μM, 2 minute time point, read-out: % Control (10 μM), Sirt3 deacylation activity.
From the text: as §1, §2

Turning to `C=C(CC)C(=O)c1ccc(OCC(=O)N[C@H](Cc2ccc(Cl)cc2)C(=O)NCCCC)c(Cl)c1Cl` [FIG. 1, (2R)—N-butyl-3-(4-chlorophenyl)-2-[[2-[2,3-dichloro-4-(2-methylenebutanoyl)phenoxy]acetyl]amino]propanamide], the remaining activity at 1 µM on Sirt3 [1] was found to be 95.7 ± 2.6%. Besides, the remaining activity at 10 µM at Sirt3 [1] stood at 82.8 ± 2.3%; on Sirt3 [2] ([E]0/[NAD+]0 = 0.3, 50 μM NAD+) it was 104 ± 3.3%; on Sirt3 [2] ([E]0/[NAD+]0 = 0.6, 50 μM NAD+), 107 ± 1.6%. Besides, the “% Control, Sirt3 deacylation activity” value at Sirt3 [1] is 73.6 ± 2.4%.

With `C=C(CC)C(=O)c1ccc(OCC(=O)NC2c3ccccc3CCc3cc(OCC(=O)NCCCC)ccc32)c(Cl)c1Cl` (centres unmarked) [FIG. 28], at Sirt3 [1], the remaining activity at 1 µM was found to be 80.4 ± 3.1%; the remaining activity at 10 µM came to 75.5 ± 2.3%; the “% Control, Sirt3 deacylation activity” value is 68.7 ± 4.0%.
